Test results from ChEMBL document CHEMBL1156733, “Structure-activity relationship studies on a series of piperazinebenzylalcohols and their ketone and amine analogs as melanocortin-4 receptor ligands” (Bioorg Med Chem Lett, 2008).

Key:
Melanocortin receptor 4 [1] = biological target: T1, Melanocortin receptor 4 (Homo sapiens, UniProt P32245)
Description: Binding affinity to human MC4 receptor

[2] = Oral bioavailability in rat at 10 mg/kg; type: ADME, organism-based; conditions: in vivo
Melanocortin receptor 4 [3] = biological target: T1, Melanocortin receptor 4; test: Antagonist activity at human MC4 receptor expressed in cells assessed as inhibition of alpha-MSH-stimulated cAMP production; type: functional, cell-based
Melanocortin receptor 5 = Melanocortin receptor 5 (Homo sapiens, UniProt P33032); test: Binding affinity to MC5 receptor
[4] = Plasma clearance in rat at 5 mg/kg, iv; type: ADME, organism-based; design: dose 5 mg/kg, route intravenous
[5] = Half life in rat at 5 mg/kg, iv; type: ADME, organism-based; design: dose 5 mg/kg, route intravenous; conditions: in vivo
[6] = Ratio of drug level in brain to plasma in rat at 5 mg/kg, iv after 1 hr; type: ADME, organism-based; design: dose 5 mg/kg, route intravenous
[7] = Volume of distribution in rat at 5 mg/kg, iv; type: ADME, organism-based; design: dose 5 mg/kg, route intravenous; conditions: in vivo
[8] = Metabolic stability assessed as intrinsic clearance in human liver microsomes; type: ADME, Microsome
Brain = test: Drug level in rat brain rat at 5 mg/kg, iv; type: ADME, organism-based; design: dose 5 mg/kg, route intravenous; conditions: in vivo
Melanocortin receptor 3 = Melanocortin receptor 3 (Homo sapiens, UniProt P41968); test: Binding affinity to MC3 receptor
[9] = Lipophilicity, log D of the compound; type: physicochemical; conditions: octanol/water

T1 sequence (P32245 whole entry): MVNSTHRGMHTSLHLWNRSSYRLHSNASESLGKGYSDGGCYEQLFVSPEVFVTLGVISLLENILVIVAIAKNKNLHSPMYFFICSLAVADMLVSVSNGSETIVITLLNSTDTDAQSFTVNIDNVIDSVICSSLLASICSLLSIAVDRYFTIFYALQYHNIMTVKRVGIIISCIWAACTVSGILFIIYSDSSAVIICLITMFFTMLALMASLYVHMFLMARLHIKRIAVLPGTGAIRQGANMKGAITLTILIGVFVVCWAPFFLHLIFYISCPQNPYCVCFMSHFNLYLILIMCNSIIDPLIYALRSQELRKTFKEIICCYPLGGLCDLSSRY
Chain of Melanocortin receptor 3 (P41968 whole entry): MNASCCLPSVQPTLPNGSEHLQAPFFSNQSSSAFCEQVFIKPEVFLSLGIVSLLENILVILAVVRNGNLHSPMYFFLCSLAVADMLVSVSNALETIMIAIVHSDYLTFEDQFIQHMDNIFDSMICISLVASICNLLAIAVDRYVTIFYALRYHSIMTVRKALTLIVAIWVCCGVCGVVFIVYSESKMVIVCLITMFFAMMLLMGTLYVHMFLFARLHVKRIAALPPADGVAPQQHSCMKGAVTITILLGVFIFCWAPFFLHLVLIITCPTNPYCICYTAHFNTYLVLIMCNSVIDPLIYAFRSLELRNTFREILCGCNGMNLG
Chain of Melanocortin receptor 5 (P33032 whole entry): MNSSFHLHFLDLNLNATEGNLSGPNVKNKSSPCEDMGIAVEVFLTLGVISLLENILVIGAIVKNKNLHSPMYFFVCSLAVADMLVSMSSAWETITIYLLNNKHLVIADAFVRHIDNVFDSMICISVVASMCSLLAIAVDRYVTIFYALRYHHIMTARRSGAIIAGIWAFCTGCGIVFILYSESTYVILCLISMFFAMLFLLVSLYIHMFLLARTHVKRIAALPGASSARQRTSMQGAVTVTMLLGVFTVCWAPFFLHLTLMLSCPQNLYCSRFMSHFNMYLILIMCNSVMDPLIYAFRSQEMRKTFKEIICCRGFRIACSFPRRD

Row | Compound | Ki (Melanocortin receptor 4 [1]) [nM] | further results
1 | CC(C)CC(=O)c1ccccc1N1CCN(C(=O)[C@@H](Cc2ccc(Cl)cc2Cl)N(Cc2ccccn2)Cc2ccccn2)CC1 | 110 | –
2 | CC(C)CC(N)c1ccccc1N1CCN(C(=O)[C@@H](Cc2ccc(Cl)cc2Cl)NC(=O)C(C)(C)N)CC1 (stereo not given in full) | 7.7 | –
3 | CC(C)CC(=O)c1ccccc1N1CCN(C(=O)[C@@H](Cc2ccc(Cl)cc2Cl)N(CC2CC2)CC2CC2)CC1 | > 10000 | –
4 | CCC(O)(CC)c1ccccc1N1CCN(C(=O)[C@@H](Cc2ccc(Cl)cc2Cl)NC(=O)[C@H](C)N)CC1 | 18 | –
5 | CCCCN(CCCC)[C@H](Cc1ccc(Cl)cc1Cl)C(=O)N1CCN(c2ccccc2C(=O)CC(C)C)CC1 | 1700 | –
6 | CNC(C)(C)C(=O)N[C@H](Cc1ccc(Cl)cc1Cl)C(=O)N1CCN(c2ccccc2C(=O)CC(C)C)CC1 | 91 | –
7 | NCCC(=O)N[C@H](Cc1ccc(Cl)cc1Cl)C(=O)N1CCN(c2ccccc2C(O)CCc2ccccc2)CC1 (stereo not given in full) | 32 | –
8 | CC(C)C[C@H](O)c1ccccc1N1CCN(C(=O)[C@@H](Cc2ccc(Cl)cc2Cl)NC(=O)CN)CC1 | 28 | –
9 | CSCCCN[C@H](Cc1ccc(Cl)cc1Cl)C(=O)N1CCN(c2ccccc2C(N)CC(C)C)CC1 (stereo not given in full) | 21 | –
10 | CCC(O)(CC)c1ccccc1N1CCN(C(=O)[C@@H](Cc2ccc(Cl)cc2Cl)NC(=O)CN)CC1 | 26 | –
11 | CC(C)CC(O)c1ccccc1N1CCN(C(=O)[C@@H](Cc2ccc(Cl)cc2Cl)N(CC2CC2)CC2CC2)CC1 (stereo not given in full) | > 10000 | –
12 | CCCCCN(CCCCC)[C@H](Cc1ccc(Cl)cc1Cl)C(=O)N1CCN(c2ccccc2C(O)CC(C)C)CC1 (stereo not given in full) | 3200 | –
13 | CCCCN(CCCC)[C@H](Cc1ccc(Cl)cc1Cl)C(=O)N1CCN(c2ccccc2C(N)CC(C)C)CC1 (stereo not given in full) | 120 | –
14 | CCC(O)(CC)c1ccccc1N1CCN(C(=O)[C@@H](Cc2ccc(Cl)cc2Cl)NC(=O)OC(C)(C)C)CC1 | 390 | –
15 | CCC(C)C(O)c1ccccc1N1CCN(C(=O)[C@@H](Cc2ccc(Cl)cc2Cl)NC(=O)CCN)CC1 (stereo not given in full) | 47 | –
16 | CC(C)CC(=O)c1ccccc1N1CCN(C(=O)[C@@H](Cc2ccc(Cl)cc2Cl)N(CC(C)C)CC(C)C)CC1 | > 10000 | –
17 | CC(C)CC(O)c1ccccc1N1CCN(C(=O)[C@@H](Cc2ccc(Cl)cc2Cl)NC(=O)C2CCCNC2)CC1 (stereo not given in full) | 49 | –

Row | Compound | Ki (Melanocortin receptor 4 [1]) [nM] | further results
18 | CC(C)CC(N)c1ccccc1N1CCN(C(=O)[C@@H](Cc2ccc(Cl)cc2Cl)NC(=O)CN)CC1 (stereo not given in full) | 2 | –
19 | C=CC(C)C(O)c1ccccc1N1CCN(C(=O)[C@@H](Cc2ccc(Cl)cc2Cl)NC(=O)CCN)CC1 (stereo not given in full) | 29 | –
20 | CCC(O)(CC)c1ccccc1N1CCN(C(=O)[C@@H](Cc2ccc(Cl)cc2Cl)NC(=O)CCN)CC1 | 11 | –
21 | NCCC(=O)N[C@H](Cc1ccc(Cl)cc1Cl)C(=O)N1CCN(c2ccccc2C(O)Cc2ccccc2)CC1 (stereo not given in full) | 54 | –
22 | CSCCCN[C@H](Cc1ccc(Cl)cc1Cl)C(=O)N1CCN(c2ccccc2C(O)CC(C)C)CC1 (stereo not given in full) | 330 | –
23 | CCOC(=O)[C@H]1CCCC[C@@H]1N1CCN(C(=O)[C@@H](Cc2ccc(Cl)cc2Cl)NC(=O)CCN)CC1 | 6.3 | –
24 | NCCC(=O)N[C@H](Cc1ccc(Cl)cc1Cl)C(=O)N1CCN(c2ccccc2CO)CC1 | 870 | –
25 | CC(C)CC(O)c1ccccc1N1CCN(C(=O)[C@@H](Cc2ccc(Cl)cc2Cl)NCC2CCOC2)CC1 (stereo not given in full) | 89 | –
26 | CC(C)CC(N)c1ccccc1N1CCN(C(=O)[C@@H](Cc2ccc(Cl)cc2Cl)NCC2CCOC2)CC1 (stereo not given in full) | 15 | –
27 | CC(C)CC(O)c1ccccc1N1CCN(C(=O)[C@@H](Cc2ccc(Cl)cc2Cl)NC(=O)[C@H](C)N)CC1 (stereo not given in full) | 16 | –
28 | CC(C)CC(N)c1ccccc1N1CCN(C(=O)[C@@H](Cc2ccc(Cl)cc2Cl)N(CC(C)C)CC(C)C)CC1 (stereo not given in full) | 1200 | –
29 | CC(C)CC(N)c1ccccc1N1CCN(C(=O)[C@@H](Cc2ccc(Cl)cc2Cl)NC(=O)CCN)CC1 (stereo not given in full) | 3.2 | bioavailability [2]: 2.1%; IC50 (Melanocortin receptor 4 [3]): 250 nM; Ki (Melanocortin receptor 5): 540 nM; clearance [4]: 68 mL/min/kg; half-life [5]: 7.1 h; Kp at 1 h [6]: 1.8; Vd [7]: 41.5 L/kg; CLint scaled [8]: 3.6 mL/min/kg; Drug uptake (Brain): 245 ng/g; Ki (Melanocortin receptor 3): 870 nM; logD [9]: 0.15
30 | CC(C)CC(O)c1ccccc1N1CCN(C(=O)[C@@H](Cc2ccc(Cl)cc2Cl)NC(C)C)CC1 (stereo not given in full) | 380 | –
31 | COc1cccc(CC(O)c2ccccc2N2CCN(C(=O)[C@@H](Cc3ccc(Cl)cc3Cl)NC(=O)CCN)CC2)c1 (stereo not given in full) | 66 | –
32 | CNC(C)(C)C(=O)N[C@H](Cc1ccc(Cl)cc1Cl)C(=O)N1CCN(c2ccccc2C(O)CC(C)C)CC1 (stereo not given in full) | 21 | –
33 | CCCCCN(CCCCC)[C@H](Cc1ccc(Cl)cc1Cl)C(=O)N1CCN(c2ccccc2C(N)CC(C)C)CC1 (stereo not given in full) | 350 | –
34 | CC(C)CC(=O)c1ccccc1N1CCN(C(=O)[C@@H](Cc2ccc(Cl)cc2Cl)NC(=O)[C@H](C)N)CC1 | 26 | –
